The source of these data is ChEMBL document CHEMBL1135474, “Synthesis and antitumor activity of 1,5,6-substituted E-3-(2-chloro-3-indolylmethylene)-1,3-dihydroindol-2-ones” (J Med Chem, 2002).

The subject of one test is NCI-H460. Description: Cytotoxic effect on human NCI-H460 lung cancer cell line as percentage growth after inoculation at 10e-4 M. Type of test: functional.
The next test has as its system SF-268. Description: Cytotoxic effect on human SF-268 glioma cancer cell line as percentage growth after inoculation at 10e-4 M. Type of test: functional.
The next test has as its system MCF7. Description: Cytotoxic effect on human MCF-7 breast cancer cell line as percentage growth at 10e-4 M. Type of test: functional.
The target in test [1] is Cyclin-dependent kinase 1/cyclin B (Homo sapiens, UniProt P06493). Kind of test: Inhibition of Cyclin-dependent kinase 1-cyclin B. Type of test: protein-complex assay.
Test [2] relates to Panel prostate (Carcinoma cell lines). Kind of test: Cytotoxic effect on human prostate tumor cell lines. Type of test: functional.
Test [3] has as its system Panel leukemia (Carcinoma cell lines). Description: Cytotoxic effect on human leukemia tumor cell lines. Type of test: functional.
The test system of test [4] is Panel melanoma (Carcinoma cell lines). Description: Inhibition of proliferation in NCI human melanoma tumor cell lines. Type of test: functional.
Test [5] shares this test system. Description: Cytostatic effect on human melanoma tumor cell lines. Type of test: functional.
For test [6], the system named is Panel breast (Carcinoma cell lines). Description: Cytostatic effect on human breast tumor cell lines. Type of test: functional.
In test [7] the test system is Panel colon (Carcinoma cell lines). Kind of test: Cytotoxic effect on human colon tumor cell lines. Type of test: functional.
The nature of test [8]: Inhibition of proliferation in NCI 60 human tumor cell line panel, MG-MID represents mean value. Type of test: functional.
Test [9] deals with Panel CNS (Carcinoma cell lines). Description: Cytostatic effect on human CNS tumor cell lines. Type of test: functional.
Test [10] relates to Panel leukemia (Carcinoma cell lines). Kind of test: Cytostatic effect on human leukemia tumor cell lines. Type of test: functional.
The test system of test [11] is Panel renal (Carcinoma cell lines). Description: Cytostatic effect on human renal tumor cell lines. Type of test: functional.
Test [12] has as its system Panel prostate (Carcinoma cell lines). Kind of test: Cytostatic effect on human prostate tumor cell lines. Type of test: functional.
Test [13] can be described thus: Cytotoxic effect on 60 human tumor cell line panel, MG-MID represents mean value. Type of test: functional.
Test [14] deals with Panel CNS (Carcinoma cell lines). Description: Inhibition of proliferation in NCI human CNS tumor cell lines. Type of test: functional.
For test [15], the system named is Panel colon (Carcinoma cell lines). Kind of test: Inhibition of proliferation in NCI human colon tumor cell lines. Type of test: functional.
Test [16] concerns NSCLC. Kind of test: Cytostatic effect on human non-small cell lung carcinoma tumor cell lines. Type of test: functional.
Test [17] relates to Panel leukemia (Carcinoma cell lines). Kind of test: Inhibition of proliferation in NCI human leukemia tumor cell lines. Type of test: functional.
Test [18] relates to Panel CNS (Carcinoma cell lines). Kind of test: Cytotoxic effect on human CNS tumor cell lines. Type of test: functional.
Test [19] concerns Panel ovarian (Carcinoma cell lines). Description: Cytotoxic effect on human ovarian tumor cell lines. Type of test: functional.
The test system of test [20] is Panel renal (Carcinoma cell lines). Description: Inhibition of proliferation in NCI human renal tumor cell lines. Type of test: functional.
The test system of test [21] is NSCLC. Description: Inhibition of proliferation in NCI human non-small cell lung tumor cell lines. Type of test: functional.
The nature of test [22]: Cytostatic effect on 60 human tumor cell line panel, MG-MID represents mean value. Type of test: functional.
For test [23], the system named is Panel melanoma (Carcinoma cell lines). Description: Cytotoxic effect on human melanoma tumor cell lines. Type of test: functional.
The subject of test [24] is Panel prostate (Carcinoma cell lines). Kind of test: Inhibition of proliferation in NCI human prostate tumor cell lines. Type of test: functional.
For test [25], the system named is Panel breast (Carcinoma cell lines). Description: Inhibition of proliferation in NCI human breast tumor cell lines. Type of test: functional.
The subject of test [26] is Panel colon (Carcinoma cell lines). Description: Cytostatic effect on human colon tumor cell lines. Type of test: functional.
For test [27], the system named is Panel ovarian (Carcinoma cell lines). Kind of test: Cytostatic effect on human ovarian tumor cell lines. Type of test: functional.
The test system is the same in test [28]. Description: Inhibition of proliferation in NCI human ovarian tumor cell lines. Type of test: functional.
Test [29] relates to Panel renal (Carcinoma cell lines). Kind of test: Cytotoxic effect on human renal tumor cell lines. Type of test: functional.

For the molecule `COc1cc2c(cc1C)NC(=O)/C2=C/c1c(Cl)n(-c2ccccc2)c2ccccc12`, the Growth was found to be 5% in the test on NCI-H460, 51% in the test with SF-268 and 8% in the test with MCF7.
For `COc1cc2c(cc1C)NC(=O)/C2=C/c1c(Cl)[nH]c2ccccc12`, the half-inhibitory concentration (IC50) in test [1] was found to be 20 µM. Further, the Growth is -35% in the test on NCI-H460, -48% in the test on SF-268 and -35% in the test with MCF7.
Take `COc1cc2c(/C=C3/C(=O)Nc4ccccc43)c(Cl)[nH]c2cc1C`: the LC50 in test [2] is on record as -4.4; in test [3], -4.1; in test [7], -4.6; in [13], -4.3; in [18], -4.4; in test [19] it was -4.4. Further, the LC50 in test [23] was -4.6; in test [29] it was -4.3. Besides, the GI50 in [4] is 126 nM; in [8] it was 100 nM; in test [14], 79.4 nM; in [15], 79.4 nM; in [17], 63.1 nM; in test [20], 200 nM. Further, the GI50 with NSCLC [21] was 126 nM; in test [24], 126 nM; in [25], 100 nM; in test [28] it was 79.4 nM. Further, the logTGI is -5 log M in [5]; -5.3 log M in test [6]; -5.6 log M in [9]; -4.7 log M in test [10]; -4.7 log M in test [11]; -4.8 log M in test [12]. Also, the logTGI with NSCLC [16] is -4.7 log M; in test [22], -5 log M; in test [26], -5.1 log M; in test [27], -5.2 log M. The Growth in the test with NCI-H460 is listed as -39%; with SF-268, -30%; with MCF7, -54%.
On to `COc1cc2c(cc1C)NC(=O)/C2=C/c1c(Cl)n(C)c2ccccc12`, for which the Growth in the test on NCI-H460 is on record as -50%; in the test on SF-268, -14%; with MCF7 it was 3%.
On the same counts, the results for `COc1ccc2c(c1)/C(=C\c1c(Cl)n(-c3ccccc3)c3ccccc13)C(=O)N2` are -28%, 12% and -6%.
In test [1], `COc1ccc2[nH]c(Cl)c(/C=C3/C(=O)Nc4cc(C)c(OC)cc43)c2c1` showed an IC50 of 30 µM. Further, the Growth is -23% in the test with NCI-H460, -54% with SF-268 and -23% with MCF7.
`O=C1/C(=C/c2c(Cl)[nH]c3ccccc23)c2ccccc2N1c1ccccc1`: the Growth is recorded as -1% with NCI-H460, 6% in the test with SF-268 and -3% in the test with MCF7.
As for `COc1cc2c(/C=C3/C(=O)N(c4ccccc4)c4ccccc43)c(Cl)[nH]c2cc1C`, the LC50 in test [2] is recorded as -4; in [3], -4; in test [7] it was -4.2; in [13], -4.1; in [18], -4.2; in [19], -4.3. Besides, the LC50 in [23] is -4.3; in test [29] it was -4.1. The GI50 in test [4] is 3160 nM; in test [8], 3160 nM; in test [14], 3160 nM; in test [15], 2510 nM; in [17], 2510 nM; in test [20] it was 3980 nM. Also, the GI50 is 3160 nM in the test with NSCLC [21], 3160 nM in test [24], 2510 nM in test [25] and 2510 nM in test [28]. Also, the logTGI in [5] was -4.9 log M; in test [6] it was -5 log M; in test [9], -4.7 log M; in [10] it was -4.4 log M; in [11], -4.4 log M; in test [12] it was -4.9 log M. The logTGI was -4.5 log M in the test with NSCLC [16], -4.7 log M in [22], -4.7 log M in test [26] and -4.8 log M in test [27]. Besides, the Growth was -10% in the test with NCI-H460, 1% in the test on SF-268 and 1% in the test on MCF7.
With `O=C1Nc2ccccc2/C1=C\c1c(Cl)[nH]c2ccc(O)cc12`, the IC50 in test [1] was 30 µM. Moreover, the results for the Growth with NCI-H460, in the test with SF-268 and with MCF7 were -82%, -34% and -69%, respectively.
As for `COc1ccc2[nH]c(Cl)c(/C=C3/C(=O)N(c4ccccc4)c4ccccc43)c2c1`, the Growth in the test with NCI-H460 is 2%; in the test with SF-268, 15%; in the test with MCF7, 3%.
On to `COc1cc2c(/C=C3/C(=O)N(C)c4ccccc43)c(Cl)[nH]c2cc1C`, for which the LC50 in test [2] is -4; in test [3] it was -4; in test [7], -4.2; in [13] it was -4.1; in test [18], -4.5; in test [19], -4.3. The LC50 in test [23] and in test [29] was -4 each time. The GI50 is 631 nM in test [4]; 398 nM in test [8]; 200 nM in test [14]; 316 nM in [15]; 251 nM in [17]; 2000 nM in test [20]. The GI50 in the test on NSCLC [21] was 794 nM; in [24] it was 398 nM; in [25], 158 nM; in test [28], 316 nM. The logTGI was -4.6 log M in test [5]; -5.1 log M in [6]; -5.6 log M in test [9]; -4.6 log M in [10]; -4.2 log M in [11]; -4.7 log M in test [12]. Besides, the logTGI in the test on NSCLC [16] is -5 log M; in [22] it was -4.9 log M; in test [26] it was -5 log M; in [27], -5.2 log M. In addition, the values for the Growth in the test with NCI-H460, with SF-268 and in the test on MCF7 were -18%, -1% and 4%, respectively.
For `COc1ccc2c(c1)/C(=C\c1c(Cl)[nH]c3cc(C)c(OC)cc13)C(=O)N2`, the LC50 in test [2] is recorded as -4.4; in test [3] it was -4.2; in test [7], -4.4; in [13], -4.3; in test [18] it was -4.7; in test [19], -4.3. The results for the LC50 in [23] and in test [29] were -4.5 and -4.3, respectively. The GI50 is 1000 nM in test [4]; 1000 nM in test [8]; 794 nM in test [14]; 1000 nM in [15]; 501 nM in [17]; 2000 nM in test [20]. The GI50 in the test on NSCLC [21] was 2510 nM; in test [24], 1260 nM; in test [25] it was 1000 nM; in test [28] it was 794 nM. Further, the logTGI in [5] was -5 log M; in test [6], -5 log M; in test [9], -5.2 log M; in test [10] it was -5.1 log M; in [11], -4.8 log M; in test [12] it was -5.1 log M. For the same molecule, the logTGI with NSCLC [16] was -4.8 log M; in [22] it was -5 log M; in [26] it was -5 log M; in test [27], -5.3 log M. In addition, the Growth in the test on NCI-H460 was -48%; in the test with SF-268, -44%; with MCF7 it was -54%.
Regarding `O=C1Nc2ccccc2/C1=C\c1c(Cl)n(-c2ccccc2)c2ccccc12`, the results for the Growth with NCI-H460, in the test on SF-268 and with MCF7 were -16%, -17% and 8%, respectively.
